{"source": "patent US20140080762A1", "about": "“HYD1 PEPTIDES FOR RELAPSED CANCER” (H. LEE MOFFITT CANCER CENTER AND RESEARCH INSTITUTE, INC., priority 2011, published 2014)", "key": {"H929-60 cells [1]": {"tested_on": "H929-60 cells", "assay": "HS-5 stroma co-culture model of drug resistance, H929-60 cells", "format": "cell-based, human", "experimental": "FIGS. 15A-15C. […] FIG. 15A: H929 and H929-60 pre-incubated with CMFDA dye were adhered to 10,000 HS-5 cells for 2 hours. After 2 hours unadherent cells were removed and the fluorescence intensity was measured on a fluorescent plate reader. FIGS. 15B and 15C: H929 and H929-60 cells were adhered to HS-5 GFP cells for 24 hours. After 24 hours samples were treated with 15 μM melphalan or 16 nM velcade for 24 hours. Cell death was analyzed using a FACScalibur with the GFP expressing HS-5 cells being excluded from the analysis. In FIGS. 15A-15C, a representative of three independent experiments was shown. (*=p<0.05, n=9 or#=p>0.05, n=9 Students t-test).\nThe inventors reasoned that acquisition of resistance towards HYD1, which correlated with reduced functional binding to fibronectin, VCAM-1, and HS-5 stromal cells, would likely result in a compromised CAMDR phenotype. To test this premise, the inventors utilized the HS-5 co-culture model of drug resistance. H929 and the HYD1 resistant variant H929-60 cells were treated with either melphalan or velcade in the presence or absence of HS-5/GFP bone marrow stromal cells. As shown in FIGS. 15B and 15C, the HYD1 resistant cell line was not resistant in the co-culture bone marrow stroma model to melphalan or velcade, respectively."}, "H929-60 cells [2]": {"tested_on": "H929-60 cells", "assay": "Cross-resistance of H929-60 cells to standard myeloma agents (annexin V FITC/PI, IC50)", "format": "cell-based, human", "conditions": "24 hours; p>0.05", "experimental": "FIG. 19. H929-60 cells are not resistant to standard myeloma therapies. H929 and H929-60 cells were treated with increasing concentrations of melphalan or Velcade for 24 hours. After 24 hours, cells were stained with annexin V FITC/P1 for 45 minutes and acquired on FACScan. IC50 values were determined by linear regressions. […] Shown in the table of FIG. 19 is the mean and standard deviations of three independent experiments."}, "[3]": {"biological_target": "human CD44 ectodomain (human) (UniProt P16070)", "sequence (P16070 21-649)": "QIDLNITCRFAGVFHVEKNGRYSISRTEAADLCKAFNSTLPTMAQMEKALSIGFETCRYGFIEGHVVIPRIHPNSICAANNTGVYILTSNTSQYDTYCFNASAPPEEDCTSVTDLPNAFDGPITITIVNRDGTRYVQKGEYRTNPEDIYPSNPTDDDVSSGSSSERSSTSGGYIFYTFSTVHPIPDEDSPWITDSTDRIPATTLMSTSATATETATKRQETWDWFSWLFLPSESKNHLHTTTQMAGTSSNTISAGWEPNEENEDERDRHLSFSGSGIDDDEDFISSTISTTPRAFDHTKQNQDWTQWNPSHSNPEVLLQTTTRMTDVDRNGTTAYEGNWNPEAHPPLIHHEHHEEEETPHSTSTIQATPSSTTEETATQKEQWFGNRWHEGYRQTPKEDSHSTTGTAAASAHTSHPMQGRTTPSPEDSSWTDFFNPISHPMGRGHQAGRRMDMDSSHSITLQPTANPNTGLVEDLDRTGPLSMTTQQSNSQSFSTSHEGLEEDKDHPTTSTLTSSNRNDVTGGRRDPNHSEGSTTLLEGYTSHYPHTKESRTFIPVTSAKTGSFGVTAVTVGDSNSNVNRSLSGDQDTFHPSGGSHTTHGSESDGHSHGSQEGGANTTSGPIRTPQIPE", "assay": "SPR; experiment 12/05"}, "[4]": {"biological_target": "human CD44 ectodomain (human) (UniProt P16070)", "assay": "SPR; experiment 12/05 LF"}, "[5]": {"biological_target": "human CD44 ectodomain (human) (UniProt P16070)", "assay": "SPR; experiment 11/29"}, "[6]": {"biological_target": "human CD44 ectodomain (human) (UniProt P16070)", "assay": "SPR; experiment 12/09"}, "[7]": {"tested_on": "epithelial prostate carcinoma cells", "conditions": "cited from earlier work"}, "H929 cells": {"tested_on": "H929 cells", "assay": "Confocal microscopy of FAM-HYD1 binding, H929 cells", "format": "cell-based, human", "conditions": "6.25 μg/ml FAM-HYD1, 10 minutes", "experimental": "FIGS. 11A-11E. […] FIG. 11B: Loss of mitochondrial membrane […] was determined using DiOC6 staining following 2 hours of HYD1 treatment in H929 and H929-60 (* denotes p<0.05 n=9, Student's t-test). FIG. 11C: ATP levels were determined in the H929 and H929-60 cell lines following 6 hours of HYD1 (50 ug/ml) treatment. (* denotes p<0.05 and # denotes p>0.05, n=9, Student's t-test). FIGS. 11D and 11E: H929 cell (FIG. 11D) and H929-60 cells (FIG. 11E) were stained with Alexa Fluor 594 wheat germ agglutinin (WGA) and Hoechst 33342 for 30 minutes. 6.25 μg/ml FAM-HYD1 was added 10 minutes before images were taken. The experiment was repeated 3 independent times and shown is a representative experiment.\n(§1) To assess whether (a) HYD1 bound the cell surface and (b) whether binding of HYD1 was reduced in the resistant cell line FAM-HYD1 was used to image peptide binding in the parental and resistant cell line by confocal microscopy. A 35 mm glass bottom microwell dishes (Mattek cultureware, Ashland, Mass.) were plated with 10 uL Cell-tak (BD biosciences) per manufacture's instructions. Media containing 1 uM Alexa Fluor 594 wheat germ agglutinin (WGA) (Invitrogen) and 20 uM Hoechst 33342 (Invitrogen) was placed back in the plates and the samples were incubated for 30 minutes. After 30 minutes, the cells were washed and treated with media containing 6.25 μg/ml FAM conjugated HYD1 for 10 minutes. […]"}, "H929-60 cells [8]": {"tested_on": "H929-60 cells", "assay": "Confocal microscopy of FAM-HYD1 binding, H929-60 cells", "format": "cell-based, human", "conditions": "12.5 μg/ml FAM-HYD1, confocal microscopy", "experimental": "(§2) FIGS. 18A, 18B-1, 18B-2, and 18B-3. […] FIG. 18A: H929 and H929-60 cells (4×10^5 cells/ml) were incubated with FAM-HYD1 (6.25, 12.5 μg/ml) on ice for 15 minutes. FACS analysis was used to determine the geometric mean of fluorescence of FAM-HYD1 bound to H929 and H929-60 cells. A representative of three independent experiments is shown. A student's t-test was performed to determine significance (* denotes p<0.05). FIGS. 18B-1, 18B-2, and 18B-3: When the dose of FAM-HYD1 was increased to 12.5 μg/ml FAM-HYD1 binding to plasma membrane was detected in the resistant cell line as determine by confocal microscopy.\nas §1"}, "H929-60 cells [9]": {"tested_on": "H929-60 cells", "assay": "FAM-HYD1 binding to cells by FACS, H929-60 cells", "format": "cell-based, human", "experimental": "as §2"}, "U226 cells": {"tested_on": "U226 cells", "assay": "Combination cytotoxicity assay with HYD1 in U226 cells", "format": "cell-based", "conditions": "in vitro", "from_the_text": "FIG. 8. Table of combination index (CI) summary for combinations of HYD1 and SAHA, etoposide, arsenic, Vel, or doxorubicin in U226 cells."}, "MM cells": {"tested_on": "MM cells", "assay": "Characterisation of HYD1-induced cell death in MM cells (apoptosis markers, autophagy, NAC protection)", "format": "cell-based"}, "recombinant CD44": {"biological_target": "T1, recombinant CD44 (Homo sapiens, UniProt P16070)", "T1 construct": "purchased Abnova", "T1 sequence (P16070 21-699 isoform P16070-4)": "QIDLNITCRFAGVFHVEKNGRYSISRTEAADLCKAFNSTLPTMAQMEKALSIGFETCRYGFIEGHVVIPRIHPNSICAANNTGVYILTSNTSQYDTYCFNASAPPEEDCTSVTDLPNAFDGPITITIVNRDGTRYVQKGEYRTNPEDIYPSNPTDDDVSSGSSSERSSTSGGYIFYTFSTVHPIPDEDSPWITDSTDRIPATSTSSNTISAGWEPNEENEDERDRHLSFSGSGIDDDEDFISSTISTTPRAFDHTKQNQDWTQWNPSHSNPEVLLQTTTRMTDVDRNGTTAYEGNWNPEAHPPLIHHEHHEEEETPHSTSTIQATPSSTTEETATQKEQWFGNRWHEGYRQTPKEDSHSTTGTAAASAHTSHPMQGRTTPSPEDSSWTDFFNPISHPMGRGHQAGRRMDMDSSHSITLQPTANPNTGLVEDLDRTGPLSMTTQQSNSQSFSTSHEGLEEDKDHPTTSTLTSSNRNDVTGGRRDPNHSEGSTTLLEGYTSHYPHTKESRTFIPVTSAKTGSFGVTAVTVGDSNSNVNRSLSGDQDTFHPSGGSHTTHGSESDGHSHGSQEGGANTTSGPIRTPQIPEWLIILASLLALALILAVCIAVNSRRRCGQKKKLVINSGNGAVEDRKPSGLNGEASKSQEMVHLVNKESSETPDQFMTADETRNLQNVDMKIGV", "assay": "Direct ELISA, recombinant CD44 binding to immobilized biotin-HYD1", "conditions": "NeutrAvidin coated 96-well plates", "procedure": "The pull down assay was directly coupled with an unbiased Mass-Spec analysis to identify HYD1 binding partners. […] NeutrAvidin beads were used to reduce non-specific binding. […] The binding experiment was repeated using 300 ug of membrane extract. […] The inventors next determined whether α4 integrin could be detected by western blot analysis. […] To determine whether CD44 was indeed a direct binding partner of CD44 the inventors used recombinant CD44 and an ELISA as a readout of binding. The recombinant CD44 protein (purchased from Abnova) corresponds to Isoform 4 on Swiss Prot. The amino acid sequence is missing 224-266 and 223 is substituted S for T relative to the longest CD44 variant referred to as epican."}, "CD44": {"tested_on": "CD44", "assay": "Biotin-HYD1 pull-down assay (Mass-Spec, Western blot), CD44 in H929 membrane extract", "format": "binding, human", "conditions": "NeutrAvidin beads", "procedure": "The first lane is 30 μg of membrane extract only. CD44 was detected by western blot analysis using a pan-CD44 antibody.\nSamples were spun at 15000 XG for minutes at 4 degrees and the supernatant was removed and membranes were pelleted at 100,000Xg for 15 minutes. Membrane pellets were solubilized in AP buffer containing 0.2% NP40 and protein was quantified using BCA reagents (Pierce, Rockford, Ill.). […] After one hour, the beads were washed twice in AP buffer and 50 ug of membrane extracts were added to a total volume of 500 μl and incubated with beads overnight at 4 degrees. The beads were washed five times in AP buffer containing 0.2% NP40 and samples were suspended in SDS-PAGE sample buffer and bound proteins were resolved by SDSPAGE.\nNeutrAvidin beads were used to reduce non-specific binding. […] The binding experiment was repeated using 300 ug of membrane extract. […] The inventors next determined whether α4 integrin could be detected by western blot analysis. […] To determine whether CD44 was indeed a direct binding partner of CD44 the inventors used recombinant CD44 and an ELISA as a readout of binding. The recombinant CD44 protein (purchased from Abnova) corresponds to Isoform 4 on Swiss Prot. The amino acid sequence is missing 224-266 and 223 is substituted S for T relative to the longest CD44 variant referred to as epican."}, "[10]": {"tested_on": "CD34+ hematopoietic progenitor cells", "assay": "Colony forming assay, normal CD34+ hematopoietic progenitor cells", "format": "cell-based", "conditions": "HYD1 12.5 and 50 μg/ml for 2 hrs; colonies counted day 12", "experimental": "(§3) CD34^+ hematopoietic progenitor cells were isolated from peripheral blood and treated for 2 hrs with HYD1 (12.5 and 50 μg/ml) and then plated in a methylcellulose media supplemented with growth factors supporting myeloid and erythroid colonies. Colonies were counted on day 12 post-plating. […] In addition, the inventors evaluated the toxicity of HYD1 in normal peripheral blood mononuclear cells (PBMC)."}, "H929 engrafted tumor": {"tested_on": "H929 engrafted tumor", "assay": "SCID-hu in vivo model, H929 engrafted tumor", "conditions": "8 mg/kg i.p. daily for 21 days", "experimental": "The SCID-hu model consists of implanting human fetal bone into the mammary mouse fat pad of SCID mice. The myeloma cells are subsequently injected directly into the bone and myeloma cells will engraft only in the area of the human bone. Human paraprotein can be measured in the mouse sera and levels represent a good marker for evaluating tumor burden and response to chemotherapy. Circulating kappa levels were measured on day 28 (baseline reading before peptide treatment), 35, 42 and 49 by ELISA, and tumor burden was determined by calculating the kappa levels on day X divided by the baseline kappa levels recorded on day 28 for each mouse. Shown in FIG. 2A is the antitumor response of H929 engrafted tumor when mice were given 8 mg/kg intraperitoneal (i.p.) injections daily for 21 days starting on day 28. […] Mice were humanely euthanized at […] as several control mice had tumor protruding from the bone implant. […] The inventors anticipate that because HYD1 induces cell death independent of apoptosis and blocks cell adhesion mediated drug resistance to standard therapy that the most dramatic in vivo activity will be realized when combined with standard therapy."}, "[11]": {"tested_on": "peripheral blood mononuclear cells (PBMC)", "assay": "Cell death in normal peripheral blood mononuclear cells", "format": "cell-based", "conditions": "six hours treatment, up to doses of 50 μg/ml", "experimental": "as §3"}}, "note": "“Also recorded” adds a separate entry of the source."}
{"compound": "CC(C)C[C@H](NC(=O)[C@H](Cc1ccccc1)NC(=O)c1cnccn1)B(O)O", "note": "[Velcade]", "values": [{"measurement": "velcade induced cell death in HS-5 co-culture, H929-60", "setting": "H929-60 cells [1]; 16 nM velcade for 24 hours", "value": "not resistant"}, {"measurement": "IC50 values, H929-60 compared to parental H929 (cross-resistance)", "setting": "H929-60 cells [2]", "value": "not resistant; also recorded: not deemed to be significant"}]}
{"compound": "HYD1", "values": [{"measurement": "Kd", "setting": "[3]", "value": 22.6, "unit": "nM"}, {"measurement": "Kd", "setting": "[4]", "value": 26.7, "unit": "nM"}, {"measurement": "Kd", "setting": "[5]", "value": 40.2, "unit": "nM"}, {"measurement": "Kd", "setting": "[6]", "value": 40.9, "unit": "nM"}]}
{"compound": "WIKSMKIVKG (HYD1 variant) [HYD1S, a scrambled derivative of HYD1]", "values": [{"measurement": "inhibition of cell adhesion to extracellular matrixes (laminin 5, laminin 332, collagen, fibronectin)", "setting": "[7]", "value": "not to inhibit cell adhesion"}]}
{"compound": "FAM-kikmviswkg [FAM-HYD1]", "values": [{"measurement": "localization of FAM-HYD1, H929", "setting": "H929 cells", "value": "localizes to the plasma membrane"}, {"measurement": "FAM-HYD1 binding to plasma membrane, H929-60", "setting": "H929-60 cells [8]", "value": "detected"}, {"measurement": "reduction in FAM-HYD1 binding relative to the parental cell line", "setting": "H929-60 cells [9]; 6.25 ug/ml FAM-HYD1, FACS", "value": 2.7, "unit": "fold"}, {"measurement": "FAM-HYD1 binding to the cell surface, H929-60 compared to H929", "setting": "H929-60 cells [9]; 6.25, 12.5 μg/ml, on ice 15 minutes", "value": "reduced binding; also recorded: decreased FAM-HYD1 binding"}]}
{"compound": "COc1cccc2c1C(=O)c1c(O)c3c(c(O)c1C2=O)C[C@@](O)(C(=O)CO)C[C@@H]3O[C@H]1C[C@H](N)[C@H](O)[C@H](C)O1", "note": "[Doxorubicin]", "values": [{"measurement": "synergy in combination with HYD1 (combination index)", "setting": "U226 cells", "value": "greatest levels of synergy; also recorded: most synergistic"}]}
{"compound": "O=C1c2c(O)ccc(O)c2C(=O)c2c(NCCNCCO)ccc(NCCNCCO)c21", "note": "[mitoxantrone]", "values": [{"measurement": "IC50 values, H929-60 compared to parental H929 (cross-resistance)", "setting": "H929-60 cells [2]", "value": "not resistant"}]}
{"compound": "CC(=O)N[C@@H](CS)C(=O)O", "note": "[N-acetyl-L-cysteine]", "values": [{"measurement": "protection of MM cells from HYD1-induced death", "setting": "MM cells", "value": "partially protects"}]}
{"compound": "O=C(O)CCCC[C@@H]1SC[C@@H]2NC(=O)N[C@@H]21", "note": "[biotin]", "values": [{"measurement": "binding of recombinant CD44 (ELISA)", "setting": "recombinant CD44", "value": "relatively no binding"}, {"measurement": "interaction with CD44 (pull-down)", "setting": "CD44", "value": "not"}]}
{"compound": "CC[C@@H](C)[C@@H](NC(=O)[C@H](N)CCCCN)C(=O)N[C@H](CCCCN)C(=O)N[C@H](CCSC)C(=O)N[C@@H](C(=O)N[C@@H](C(=O)N[C@H](CO)C(=O)N[C@H](Cc1c[nH]c2ccccc12)C(=O)N[C@H](CCCCN)C(=O)NCC(=O)O)[C@H](C)CC)C(C)C", "note": "[HYD1]", "values": [{"measurement": "colony formation of normal CD34+ cells", "setting": "[10]", "value": "did not inhibit colony formation; also recorded: did not inhibit differentiation or colony formation"}, {"measurement": "overt toxicity or weight loss", "setting": "H929 engrafted tumor", "value": "no overt toxicity or weight loss"}, {"measurement": "cell death in PBMC", "setting": "[11]", "value": "did not induce cell death; also recorded: not sensitive"}]}
{"compound": "N[C@@H](Cc1ccc(N(CCCl)CCCl)cc1)C(=O)O", "note": "[melphalan]", "values": [{"measurement": "melphalan induced cell death in HS-5 co-culture, H929-60", "setting": "H929-60 cells [1]; 15 μM melphalan for 24 hours", "value": "not resistant"}, {"measurement": "IC50 values, H929-60 compared to parental H929 (cross-resistance)", "setting": "H929-60 cells [2]", "value": "not resistant; also recorded: not deemed to be significant"}]}
